Data on two molecules can be found in US7494821B2, “Fluorescein based sensors for tracking nitric oxide in live cells” (Massachusetts Institute of Technology, priority 2005, dated 2009).

Data set [1] concerns Raw 264.7 cells. In words: MTT cytotoxicity assay on Raw 264.7 cells. The class given is cell-based, murine. The following applies: Cu(FL5) 1 μM, 5 days. As to the method: (§1) Raw 264.7, SK-N-SH, and HeLa cells were purchased from the American Type Culture Collection (ATCC). All three cell lines were maintained in Dulbecco's modified Eagles' media (DMEM) (GibcoBRL) containing 10% (v/v) heat-inactivated fetal bovine serum (FBS) (HyClone), 1 mM sodium pyruvate (Sigma), 100 units/ml penicillin, 100 μg/ml streptomycin (Invitrogen), and 0.1 mM nonessential amino acid solution for minimal essential medium (Sigma). All cells were grown at 37° C. in a humidified atmosphere of 10% CO2. A nitrite assay was performed with Griess reagents (Promega) on Raw 264.7 cells grown in DMEM free of phenol red. Calcium sensor fluo-4 AM was purchased from Invitrogen. MTT [3-(4,5-dimethylthiazol-2-yl)-2,5-diphenyltetrazolium bromide] (Sigma-Aldrich) assay was described in Supplementary information. The expression of iNOS in Raw 264.7 cells was analyzed by Western blot on the extracts of cells stimulated by LPS and INF-γ. The protein was silenced by short hairpin RNA-induced RNAi and the resulting cell lines were used in fluorescence imaging by Cu(FL5).

For data set [2], the system named is HeLa cells. In words: Control imaging in HeLa cells. The class given is cell-based. On the procedure:
We investigated the ability of Cu(FL5) to detect NO produced in SK-N-SH human neuroblastoma cells under physiological conditions, since constitutive NO synthase (“cNOS”) in this cell line can be activated by estrogen to produce NO. Estrogen administration leads to an increase in the cytosolic Ca(II) concentration that alters the structure of calmodulin, which in turn activates cNOS. The NO-dependent fluorescence response, monitored after simultaneous administration of 17β-estradiol (100 nM) and Cu(FL5) (1 μM) to the cells, was completed within 5 min with a 4.0±0.6-fold increase in fluorescence (FIGS. 5a and b). […] As another control, HeLa cells were co-treated with 17β-estradiol (100 nM) and Cu(FL5) (1 μM).
To investigate further the origin of fluorescence detected by Cu(FL5), iNOS was silenced in Raw 264.7 cells by short hairpin RNA (shRNA)-induced RNA interference (RNAi) (FIG. 6b).
Raw 264.7, SK-N-SH, and HeLa cells were purchased from the American Type Culture Collection (ATCC). […] The expression of iNOS in Raw 264.7 cells was analyzed by Western blot on the extracts of cells stimulated by LPS and INF-γ. The protein was silenced by short hairpin RNA-induced RNAi and the resulting cell lines were used in fluorescence imaging by Cu(FL5).

A short description of data set [3]: Cell membrane passage in live cell studies. The class given is cell-based. The text has this: In summary, we have synthesized a Cu(II)-based fluorescein compound Cu(FL5) for imaging NO based on redox chemistry. Reduction of Cu(FL5) by NO to Cu(I) with nitrosation of the FL5 ligand is accompanied by bright visible light emission. […] Studies of Cu(FL5) in pH 7.0 aqueous buffered solutions indicate that the NO response is direct, rapid, and specific.

Data set [4] concerns iNOS. Kind of data set: iNOS expression in Raw 264.7 cells (Western blot). The class given is cell-based, murine. The following applies: Raw 264.7 cells upon introduction of LPS and IFN-γ. On the procedure:
as §1

Data set [5] is described as follows: Specificity for NO over other reactive nitrogen and oxygen species. The following applies: 100 equivalents of O2−, ClO−, H2O2, HNO, NO2−, NO3−, ONOO−, 2 h, pH 7.0 buffer, 1 μM. As to the method:
FIG. 6 illustrates the specificity of Cu(FL5) for NO over other reactive nitrogen and oxygen species. The fluorescence response of Cu(FL5) was determined after addition of 100 equivalents of O2^−, ClO^−, H2O2, HNO (Angeli's salt Na2N2O3), NO2^−, NO3^−, and ONOO^− for 2 h in buffered aqueous solution (50 mM PIPES, pH 7.0, 100 mM KCl). The excitation wavelength was 503 nm. All data (F) are normalized with respect to the emission of Cu(FL5) (F(Cu(FL5))). [Cu(FL5)]=1 μM. Error bars indicate s.d.
(§2) The fluorescence of a 1 μM FL5 solution was diminished by 18±3% upon introduction of an equimolar quantity of CuCl2 at 37° C. Addition of excess NO to a buffered aqueous Cu(FL5) solution led to an immediate 11.2±1.5-fold increase in fluorescence (FIG. 5). […] The lower detection limit for NO is 5 nM.

For data set [6], the system named is SK-N-SH cells. In words: MTT cytotoxicity assay on SK-N-SH cells. The class given is cell-based, human. On the procedure: To test the toxicity of Cu(FL5), a MTT [3-(4,5-dimethylthiazol-2-yl)-2,5-diphenyltetrazolium bromide] assay was performed on SK-N-SH cells after 5 days of incubation with Cu(FL5) (1 μM).
Thus, both Cu(FL5) and FL5−NO are not toxic under the conditions used here for bioimaging of NO.
as §1

Data set [7] can be described thus: Cu(II) binding of FL5 (UV-vis titration with CuCl2; fluorescence quenching). The following applies: 1 μM FL5 solution, 37° C. On the procedure:
Derivatized fluorescein molecules are excellent biosensors because they excite and emit in a region of the visible spectrum that is relatively free of interference. We prepared the fluorescein-based ligand FL5 (FIG. 4) by reacting 7′-chloro-4′-fluorescein-carboxaldehyde with 8-aminoquinaldine. We generated the Cu(II) fluorescein-based NO probe Cu(FL5) (FIG. 4) in situ reacting FL5 (prepared as described below) awith CuCl2 in a 1:1 ratio in buffered aqueous solution (50 mM PIPES, pH 7.0, 100 mM KCl). […] A Job's plot was constructed to evaluate the nature of the FL5:Cu(II) complex by following the UV-vis absorption spectral change at 512 nm in pH 7.0 buffered solution. A break at 0.5 indicated the formation of a 1:1 complex.
as §2

The nature of data set [8]: Quantum yield. The class given is physicochemical. The text has this:
Quantum yield may be obtained by comparison of the integrated area of the corrected emission spectrum of the sample with that of a reference solution. A preferred reference solution is a solution of fluorescein in 0.1 N NaOH, quantum efficiency 0.95. The concentration of the reference is adjusted to match the absorbance of the test sample. The quantum yields may be calculated using the following equation.
Upon addition of excess NO, a 499 nm peak in the UV-vis spectrum of Cu(FL5) in pH 7.0 buffered solution red-shifted back to the λmax characteristic of FL5 or the synthetic FL5−NO compound (504 nm), which differs from the band formed in the reaction of FL5 with 1 equivalent of Cu(I) added as [Cu(CH3CN)4](BF4) (506 nm). […] In addition, the spectrum of the NO reaction solution closely resembled that of the monoanionic fluorescein formed by lowering the pH from 7.0 to 5.0. […] These values are in the range previously reported for N-nitrosamines. The presence of two separate chemical shifts might arise from different isomers in solution, the Δδ of 2.29 being similar to that of previously reported of N-nitrosamines. […] Lastly, FL5−NO is brighter than FL5 or Cu(FL5), the respective quantum yields being ΦFL-NO=0.58±0.02 and ΦFL=0.077±0.002.

Turning to `Cc1ccc2cccc(NCc3c([O][Cu][Cl])ccc4c(-c5ccccc5C(=O)O)c5cc(Cl)c(=O)cc-5oc34)c2n1` [Cu(FL5)], the “survival of Raw 264.7 cells (MTT)” value in data set [1] came out at 90±3%. Further, the “fluorescence in HeLa cells co-treated with 17β-estradiol” value in data set [2] (17β-estradiol (100 nM), Cu(FL5) (1 μM)) was “absence of turn-on emission”. The “turn-on fluorescence emission in HeLa cells treated with LPS and IFN-γ” value in data set [2] (LPS and IFN-γ prior to Cu(FL5) incubation) is given as “not observed”. The “passage through cell membranes” value in data set [3] is recorded as “readily passes through cell membranes”. Besides, the “effect on expression of iNOS” value in data set [4] is listed as “does not affect the expression of iNOS”. Also, the “fluorescence response specificity for NO over other reactive species” value in data set [5] was “detects NO specifically”. In addition, the “viable cells (MTT), cell line not specified” value in data set [6] (1 μM Cu(FL5), after 5 days) is greater than 80%. The “survival of SK-N-SH cells (MTT)” value in data set [6] (5 days of incubation, Cu(FL5) 1 μM) was 80±9%.

Take `Cc1ccc2cccc(NCc3c(O)ccc4c(-c5ccccc5C(=O)O)c5cc(Cl)c(=O)cc-5oc34)c2n1` [FL5, 2-{2-chloro-6-hydroxy-5-[(2-methyl-quinolin-8-ylamino)-methyl]-3-oxo-3H-xanthen-9-yl}-benzoic acid]: the “fluorescence diminished upon introduction of equimolar CuCl2” value in data set [7] was 18±3%. The “quantum yield Φ” value in data set [8] is listed as 0.077±0.002.
